# Reference: patent US9445594B2, “Molecules having certain pesticidal utilities, intermediates, compositions, and processes, related thereto” (priority 2014, dated 2016)
# Assays:
# Type in all cases: in vivo
# [1] = tested on: Corn Earworm (Helicoverpa zea, HELIZE) ("CEW"); assay: Bioassays on CEW, 128-well diet tray assay; conditions: 168 h, second instar larvae, 50 μg/cm^2 on artificial diet, 25° C., five to seven days, average of eight wells, read-out: CEW % Control (or Mortality) rating
# Method: Certain molecules disclosed in this document were tested against BAW, CEW, and CL using procedures described in the following examples. In the reporting of the results, the “BAW, CEW, & CL Rating Table” was used (See Table Section).
# Bioassays on CEW were conducted using a 128-well diet tray assay. one to five second instar CEW larvae were placed in each well (3 mL) of the diet tray that had been previously filled with 1 mL of artificial diet to which 50 μg/cm^2 of the test compound (dissolved in 50 μL of 90:10 acetone-water mixture) had been applied (to each of eight wells) and then allowed to dry. Trays were covered with a clear self-adhesive cover, and held at 25° C., 14:10 light-dark for five to seven days. Percent mortality was recorded for the larvae in each well; activity in the eight wells was then averaged. The results are indicated in the table entitled “Table ABC: Biological Results” (See Table Section). Bioassays on CL
# [2] = tested on: Cabbage Looper (Trichoplusia ni, TRIPNI) ("CL"); assay: Bioassays on CL, 128-well diet tray assay; conditions: 168 h, second instar larvae, 50 μg/cm^2 on artificial diet, 25° C., five to seven days, average of eight wells, read-out: CL % Control (or Mortality) rating
# Outline: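 Second-instar larvae (one to five per well) on artificial diet surface-treated with 50 μg/cm^2 compound in 90:10 acetone-water, eight wells per treatment. Held at 25° C., 14:10 light-dark for five to seven days. Percent mortality scored per well and averaged over the eight wells.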
# [3] = tested on: Yellow Fever Mosquito (Aedes aegypti, AEDSAE) ("YFM"); assay: Bioassays on YFM, 96-well plate larval assay; conditions: about 1 day-old larvae, from 4000 ppm DMSO master plate diluted, room temperature, scored after 3 days
# Outline: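 Compounds from 4000 ppm DMSO master plates, diluted in 90:10 water:acetone, dispensed into 96-well plates, six replicates. About 1-day-old larvae added in liver-powder water. Wells covered, held 3 days at room temperature, then scored for mortality.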
# [4] = tested on: Beet Armyworm (Spodoptera exigua, LAPHEG) ("BAW"); assay: Bioassays on BAW, 128-well diet tray assay; conditions: 168 h, second instar larvae, 50 μg/cm^2 on artificial diet, 25° C., five to seven days, average of eight wells, read-out: BAW % Control (or Mortality) rating
# Outline: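 One to five second-instar larvae were placed per well on artificial diet surface-treated with 50 μg/cm^2 compound from 90:10 acetone-water, dried before infestation. Trays were held at 25 °C, 14:10 light-dark, for five to seven days. Percent mortality was averaged over eight wells.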
# [5] = tested on: Green Peach Aphid (Myzus persicae, MYZUPE) ("GPA"); assay: Bioassays on GPA, foliar spray of infested cabbage seedlings; conditions: 72 h, 200 ppm spray on cabbage seedlings, graded after three days, Abbott corrected % control, read-out: GPA % Control (or Mortality) rating
# Method: Certain molecules disclosed in this document were tested against GPA using procedures described in the following example. In the reporting of the results, the “GPA Rating Table” was used (See Table Section).
# Cabbage seedlings grown in 3-inch pots, with 2-3 small (3-5 cm) true leaves, were used as test substrate. The seedlings were infested with 20-50 GPA (wingless adult and nymph stages) one day prior to chemical application. Four pots with individual seedlings were used for each treatment. Test compounds (2 mg) were dissolved in 2 mL of acetone/methanol (1:1) solvent, forming stock solutions of 1000 ppm test compound. The stock solutions were diluted 5× with 0.025% Tween 20 in water to obtain the solution at 200 ppm test compound. A hand-held aspirator-type sprayer was used for spraying a solution to both sides of […] leaves until runoff. Reference plants (solvent check) were sprayed with the diluent only containing 20% by volume of acetone/methanol (1:1) solvent. Treated plants were held in a holding room for three days at approximately 25° C. and ambient relative humidity (RH) prior to grading. Evaluation was conducted by counting the number of live aphids per plant under a microscope. Percent Control was measured by using Abbott's correction formula (W. S. Abbott, “A Method of Computing the Effectiveness of an Insecticide” J. Econ. Entomol. 18 (1925), pp. 265-267) as follows. Corrected % Control=100*(X−Y)/X • where • X=No. of live aphids on solvent check plants and • Y=No. of live aphids on treated plants
SMILES,mortality at 50 µg/cm2 [1] [%],mortality at 50 µg/cm2 [2] [%],YFM % Control (or Mortality) rating [3],mortality at 50 µg/cm2 [4] [%],mortality at 200 ppm [5] [%]
"CC(C)n1cnnc1-c1ccccc1NC(=S)Nc1ccc(-c2ncn(-c3ccc(OC(F)(F)F)cc3)n2)cc1 [F48, 1-(2-(4-isopropyl-4H-1,2,4-triazol-3-yl)phenyl)-3-(4-(1-(4-(trifluoromethoxy)phenyl)-1H-1,2,4-triazol-3-yl)phenyl)thiourea]",0 to 50,50 to 100,A (80-100),50 to 100,
"FC(F)(F)Oc1ccc(-n2cnc(-c3ccc(NC(=S)Nc4ccccc4-n4cccc4)cc3)n2)cc1 [F74, 1-(2-(1H-Pyrrol-1-yl)phenyl)-3-(4-(1-(4-(trifluoromethoxy)phenyl)-1H-1,2,4-triazol-3-yl)phenyl)thiourea]",50 to 100,50 to 100,,50 to 100,
"CCOc1ccc(NC(=O)Nc2ccc(-c3ncn(-c4ccc(OC(F)(F)F)cc4)n3)cc2)cn1 [F8, 1-(6-Ethoxypyridin-3-yl)-3-(4-(1-(4-(trifluoromethoxy)phenyl)-1H-1,2,4-triazol-3-yl)phenyl)urea]",0,,,0,0
"FC(F)(F)Oc1ccc(-n2cnc(-c3ccc(NC(=S)Nc4ccccc4Cc4ccccc4)cc3)n2)cc1 [F58, 1-(2-Benzylphenyl)-3-(4-(1-(4-(trifluoromethoxy)phenyl)-1H-1,2,4-triazol-3-yl)phenyl)thiourea]",50 to 100,50 to 100,D (No activity noticed in this bioassay),50 to 100,
"CC(C)n1cnnc1-c1ccccc1NC(=O)Nc1ccc(-c2ncn(-c3ccc(OC(F)(F)F)cc3)n2)cc1 [F55, 1-(2-(4-Isopropyl-4H-1,2,4-triazol-3-yl)phenyl)-3-(4-(1-(4-(trifluoromethoxy)phenyl)-1H-1,2,4-triazol-3-yl)phenyl)urea]",0,50 to 100,A (80-100),50 to 100,
"FC(F)(F)Oc1ccc(-n2cnc(-c3ccc(NC(=S)Nc4ccccc4-c4ccco4)cc3)n2)cc1 [F30, 1-(2-(Furan-2-yl)phenyl)-3-(4-(1-(4-(trifluoromethoxy)phenyl)-1H-1,2,4-triazol-3-yl)phenyl)thiourea]",50 to 100,50 to 100,A (80-100),50 to 100,
"CC(C)c1ccccc1NC(=O)NCc1ccc(-c2ncn(-c3ccc(OC(F)(F)C(F)(F)F)cc3)n2)cc1 [F34, 1-(2-isopropylphenyl)-3-(4-(1-(4-(perfluoroethoxy)phenyl)-1H-1,2,4-triazol-3-yl)benzyl)urea]",50 to 100,50 to 100,,0,
"Cc1ccc(C(C)C)c(NC(=S)NCCCc2ccc(-c3ncn(-c4ccc(OC(F)(F)F)cc4)n3)cc2)c1 [F29, 1-(2-isopropyl-5-methylphenyl)-3-(3-(4-(1-(4-(trifluoromethoxy)phenyl)-1H-1,2,4-triazol-3-yl)phenyl)propyl)thiourea]",50 to 100,50 to 100,A (80-100),50 to 100,
"Cc1nc(Cl)ccc1NC(=O)Nc1ccc(-c2ncn(-c3ccc(OC(F)(F)F)cc3)n2)cc1 [F36, 1-(6-Chloro-2-methylpyridin-3-yl)-3-(4-(1-(4-(trifluoromethoxy)phenyl)-1H-1,2,4-triazol-3-yl)phenyl)urea]",50 to 100,,,50 to 100,0 to 80
"O=C(Nc1ccc(-c2ncn(-c3ccc(OC(F)(F)F)cc3)n2)cc1)Nc1ccccc1-c1ccco1 [F21, 1-(2-(Furan-2-yl)phenyl)-3-(4-(1-(4-(trifluoromethoxy)phenyl)-1H-1,2,4-triazol-3-yl)phenyl)urea]",50 to 100,50 to 100,D (No activity noticed in this bioassay),50 to 100,
"O=C(NCc1ccc(-c2ncn(-c3ccc(OC(F)(F)C(F)(F)F)cc3)n2)cc1)Nc1ccccc1-c1ccccc1 [F73, 1-([1,1′-Biphenyl]-2-yl)-3-(4-(1-(4-(perfluoroethoxy)phenyl)-1H-1,2,4-triazol-3-yl)benzyl)urea]",50 to 100,50 to 100,,50 to 100,
"FC(F)(F)Oc1ccc(-n2cnc(-c3ccc(NC(=S)Nc4ccccc4-c4noc(C5CC5)n4)cc3)n2)cc1 [F23, 1-(2-(5-Cyclopropyl-1,2,4-oxadiazol-3-yl)phenyl)-3-(4-(1-(4-(trifluoromethoxy)phenyl)-1H-1,2,4-triazol-3-yl)phenyl)thiourea]",50 to 100,50 to 100,A (80-100),50 to 100,
"COc1ccc(NC(=O)Nc2ccc(-c3ncn(-c4ccc(OC(F)(F)F)cc4)n3)cc2)cn1 [F10, 1-(6-Methoxypyridin-3-yl)-3-(4-(1-(4-(trifluoromethoxy)phenyl)-1H-1,2,4-triazol-3-yl)phenyl)urea]",50 to 100,,,50 to 100,0 to 80
"CC(C)c1ccccc1NC(=O)NCc1ccc(-c2ncn(-c3ccc(OC(F)(F)F)cc3)n2)cc1 [F65, 1-(2-Isopropylphenyl)-3-(4-(1-(4-(trifluoromethoxy)phenyl)-1H-1,2,4-triazol-3-yl)benzyl)urea]",0 to 50,50 to 100,D (No activity noticed in this bioassay),0,
"O=C(Nc1ccc(-c2ncn(-c3ccc(OC(F)(F)F)cc3)n2)cc1)Nc1ccccc1C1CC1 [F40, 1-(2-cyclopropylphenyl)-3-(4-(1-(4-(trifluoromethoxy)phenyl)-1H-1,2,4-triazol-3-yl)phenyl)urea]",50 to 100,50 to 100,,50 to 100,
"Cc1ccc(C(C)C)c(NC(=O)Nc2ccc(-c3ncn(-c4ccc(OC(F)(F)C(F)(F)F)cc4)n3)cc2)c1 [F57, 1-(2-Isopropyl-5-methylphenyl)-3-(4-(1-(4-(perfluoroethoxy)phenyl)-1H-1,2,4-triazol-3-yl)phenyl)urea]",50 to 100,50 to 100,D (No activity noticed in this bioassay),50 to 100,
"CCOC(=O)c1ccc(NC(=O)Nc2ccc(-c3ncn(-c4ccc(OC(F)(F)F)cc4)n3)cc2)c(C)n1 [F41, Ethyl 6-methyl-5-(3-(4-(1-(4-(trifluoromethoxy)phenyl)-1H-1,2,4-triazol-3-yl)phenyl)ureido)picolinate]",0,,,0,0
"CCOc1ccc(NC(=O)Nc2ccc(-c3ncn(-c4ccc(OC(F)(F)F)cc4)n3)cc2)cc1 [F2, 1-(4-ethoxyphenyl)-3-(4-(1-(4-(trifluoromethoxy)phenyl)-1H-1,2,4-triazol-3-yl)phenyl)urea]",0,,,0,0
